Measurements taken from US7612211B2, “Benzimidazole TRPV1 inhibitors” (Janssen Pharmaceutica N.V., priority 2006, dated 2009).

Target: T1, hTRPV1 (Homo sapiens, UniProt Q8NER1)
T1 construct: expressed in transfected cells; host or cells: HEK293
Assay: Human TRPV1 (hTRPV1) functional assay, FLIPR intracellular Ca2+, capsaicin challenge
Type: cell-based
Conditions: HEK293 cells expressing hTRPV1, capsaicin 0.030 μM challenge; for IC50: derived from a variety of test concentrations, read-out: IC50 value (symbol c); for inhibition at 0.2 µM: test concentration of 0.2 μm, read-out: percent inhibition (symbol b); for inhibition at 0.5 µM: test concentration of 0.5 μm, read-out: percent inhibition (symbol a)
Procedure: The functional activity of the test compounds was determined by measuring changes in intracellular calcium concentration using a Ca^++-sensitive fluorescent dye and FLIPR™ technology. Increases in Ca^++ concentration were readily detected upon challenge with capsaicin.
HEK293 cells expressing hTRPV1 were grown on poly-D-lysine coated 384 well black-walled plates (BD 354663) and 1 day later loaded with Calcium 3 Dye for 35 min at 37° C., 5% CO2 and then for 25 min at room temperature, and subsequently tested for agonist-induced increases in intracellular Ca^2+ levels using FLIPR™ technology. Cells were challenged with test compounds (at varying concentrations) and intracellular Ca^2+ was measured for 5 min prior to the addition of capsaicin to all wells to achieve a final concentration of 0.030 μM eliciting ˜80% maximal response.
EC50 or IC50 values were determined from concentration-response studies, which were generated using the average of quadruplicate wells for each data point. The symbol “a” represents percent inhibition obtained at a test concentration of 0.5 μm; the symbol “b” represents percent inhibition obtained at a test concentration of 0.2 μm; the symbol “c” represents an IC50 value (nM) derived from a variety of test concentrations. The term “NA” means that the result is not applicable for a particular compound.

T1 sequence (Q8NER1 whole entry): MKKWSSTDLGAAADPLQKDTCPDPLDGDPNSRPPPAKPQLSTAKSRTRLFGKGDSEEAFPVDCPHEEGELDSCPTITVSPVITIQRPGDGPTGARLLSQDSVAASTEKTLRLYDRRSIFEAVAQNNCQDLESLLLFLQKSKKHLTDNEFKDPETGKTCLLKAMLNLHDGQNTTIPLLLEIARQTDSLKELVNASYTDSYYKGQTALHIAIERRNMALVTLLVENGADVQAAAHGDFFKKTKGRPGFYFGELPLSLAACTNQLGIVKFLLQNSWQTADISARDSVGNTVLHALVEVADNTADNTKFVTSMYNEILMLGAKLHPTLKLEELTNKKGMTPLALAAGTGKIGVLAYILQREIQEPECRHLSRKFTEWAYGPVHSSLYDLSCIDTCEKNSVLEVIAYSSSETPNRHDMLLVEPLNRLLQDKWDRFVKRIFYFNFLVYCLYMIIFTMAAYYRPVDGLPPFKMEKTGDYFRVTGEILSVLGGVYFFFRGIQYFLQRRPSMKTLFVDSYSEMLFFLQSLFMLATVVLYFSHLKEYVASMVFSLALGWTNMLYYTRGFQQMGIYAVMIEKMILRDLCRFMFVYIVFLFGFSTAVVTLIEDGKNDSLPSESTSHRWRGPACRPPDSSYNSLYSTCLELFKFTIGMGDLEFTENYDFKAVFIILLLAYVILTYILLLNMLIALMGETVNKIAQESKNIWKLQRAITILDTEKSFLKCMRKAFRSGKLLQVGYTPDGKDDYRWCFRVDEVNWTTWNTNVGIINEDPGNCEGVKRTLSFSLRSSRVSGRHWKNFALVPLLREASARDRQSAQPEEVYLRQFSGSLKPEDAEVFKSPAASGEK

IC50 [nM]	inhibition at 0.2 µM [%]	inhibition at 0.5 µM [%]	SMILES
31	96	–	Cc1ccc(OCc2nc3cc(-c4ccccc4S(C)(=O)=O)ccc3[nH]2)cc1 [Cpd 76, 5-(2-methanesulfonyl-phenyl)-2-p-tolyloxymethyl-1H-benzoimidazole]
3	100	–	CC(C)c1ccc(OCc2nc3cc(-c4ccccc4S(C)(=O)=O)ccc3[nH]2)cc1 [Cpd 77, 2-(4-isopropyl-phenoxymethyl)-5-(2-methanesulfonyl-phenyl)-1H-benzoimidazole]
3	98	–	CC(C)(C)c1ccc(OCc2nc3cc(-c4ccccc4S(C)(=O)=O)ccc3[nH]2)cc1 [Cpd 78, 2-(4-tert-butyl-phenoxymethyl)-5-(2-methanesulfonyl-phenyl)-1H-benzoimidazole]
–	61	–	CC(=O)c1ccc(OCc2nc3cc(-c4ccccc4S(C)(=O)=O)ccc3[nH]2)cc1 [Cpd 79, 1-{4-[5-(2-methanesulfonyl-phenyl)-1H-benzoimidazol-2-ylmethoxy]-phenyl}-ethanone]
14	99	–	CS(=O)(=O)c1ccccc1-c1ccc2[nH]c(COc3ccc4ccccc4c3)nc2c1 [Cpd 80, 5-(2-methanesulfonyl-phenyl)-2-(naphthalen-2-yloxymethyl)-1H-benzoimidazole]
85	96	–	CCOc1ccc(OCc2nc3cc(-c4ccccc4S(C)(=O)=O)ccc3[nH]2)cc1 [Cpd 81, 2-(4-ethoxy-phenoxymethyl)-5-(2-methanesulfonyl-phenyl)-1H-benzoimidazole]
7	99	–	CS(=O)(=O)c1ccccc1-c1ccc2[nH]c(COc3ccc(SC(F)(F)F)cc3)nc2c1 [Cpd 82, 5-(2-methanesulfonyl-phenyl)-2-(4-trifluoromethanesulfide-phenoxymethyl)-1H-benzoimidazole]
–	51	–	CS(=O)(=O)c1ccccc1-c1ccc2[nH]c(COc3ccc(C#N)cc3)nc2c1 [Cpd 83, 4-[5-(2-methanesulfonyl-phenyl)-1H-benzoimidazol-2-ylmethoxy]-benzonitrile]
–	12	–	CS(=O)(=O)c1ccc(OCc2nc3cc(-c4ccccc4S(C)(=O)=O)ccc3[nH]2)cc1 [Cpd 85, 2-(4-methanesulfonyl-phenoxymethyl)-5-(2-methanesulfonyl-phenyl)-1H-benzoimidazole]
14	96	–	CS(=O)(=O)c1ccccc1-c1ccc2[nH]c(COc3ccc4c(c3)CCCC4)nc2c1 [Cpd 87, 5-(2-methanesulfonyl-phenyl)-2-(5,6,7,8-tetrahydro-naphthalen-2-yloxymethyl)-1H-benzoimidazole]
–	36	–	COC(=O)CCc1ccc(OCc2nc3cc(-c4ccccc4S(C)(=O)=O)ccc3[nH]2)cc1 [Cpd 88, 3-{4-[5-(2-methanesulfonyl-phenyl)-1H-benzoimidazol-2-ylmethoxy]-phenyl}-propionic acid methyl ester]
52	90	–	Cc1ccc(OCc2nc3cc(-c4ccccc4S(C)(=O)=O)ccc3[nH]2)c(C)c1 [Cpd 89, 2-(2,4-dimethyl-phenoxymethyl)-5-(2-methanesulfonyl-phenyl)-1H-benzoimidazole]
–	31	–	Cc1cc(C)cc(OCc2nc3cc(-c4ccccc4S(C)(=O)=O)ccc3[nH]2)c1 [Cpd 90, 2-(3,5-dimethyl-phenoxymethyl)-5-(2-methanesulfonyl-phenyl)-1H-benzoimidazole]
21	99	–	CS(=O)(=O)c1ccccc1-c1ccc2[nH]c(COc3ccc4c(c3)CCC4)nc2c1 [Cpd 91, 2-(indan-5-yloxymethyl)-5-(2-methanesulfonyl-phenyl)-1H-benzoimidazole]
86	76	–	CS(=O)(=O)c1ccccc1-c1ccc2[nH]c(COc3ccc4c(c3)OCO4)nc2c1 [Cpd 92, 2-(benzo[1,3]dioxol-5-yloxymethyl)-5-(2-methanesulfonyl-phenyl)-1H-benzoimidazole]
–	11	–	CS(=O)(=O)c1ccccc1-c1ccc2[nH]c(COc3cc(Cl)cc(Cl)c3)nc2c1 [Cpd 93, 2-(3,5-dichloro-phenoxymethyl)-5-(2-methanesulfonyl-phenyl)-1H-benzoimidazole]
–	1	–	CC(=O)Nc1cccc(OCc2nc3cc(-c4ccccc4S(C)(=O)=O)ccc3[nH]2)c1 [Cpd 94, N-{3-[5-(2-methanesulfonyl-phenyl)-1H-benzoimidazol-2-ylmethoxy]-phenyl}-acetamide]
–	1	–	CC(=O)Nc1ccc(OCc2nc3cc(-c4ccccc4S(C)(=O)=O)ccc3[nH]2)cc1 [Cpd 95, N-{4-[5-(2-methanesulfonyl-phenyl)-1H-benzoimidazol-2-ylmethoxy]-phenyl}-acetamide]
–	6	–	COc1ccc(OCc2nc3cc(-c4ccccc4S(C)(=O)=O)ccc3[nH]2)cc1 [Cpd 96, 5-(2-methanesulfonyl-phenyl)-2-(4-methoxy-phenoxymethyl)-1H-benzoimidazole]
–	42	–	COc1cccc(OCc2nc3cc(-c4ccccc4S(C)(=O)=O)ccc3[nH]2)c1 [Cpd 97, 5-(2-methanesulfonyl-phenyl)-2-(3-methoxy-phenoxymethyl)-1H-benzoimidazole]
–	–	14	CS(=O)(=O)c1cccc(-c2ccc3[nH]c(COc4ccc(C(F)(F)F)cc4)nc3c2)c1 [Cpd 99, 5-(3-methanesulfonyl-phenyl)-2-(4-trifluoromethyl-phenoxymethyl)-1H-benzoimidazole]
–	–	13	CS(=O)(=O)c1ccc(-c2ccc3[nH]c(COc4ccc(C(F)(F)F)cc4)nc3c2)cc1 [Cpd 100, 5-(4-methanesulfonyl-phenyl)-2-(4-trifluoromethyl-phenoxymethyl)-1H-benzoimidazole]
–	–	8	CS(=O)(=O)Nc1cccc(-c2ccc3[nH]c(COc4ccc(C(F)(F)F)cc4)nc3c2)c1 [Cpd 102, N-{3-[2-(4-trifluoromethyl-phenoxymethyl)-1H-benzoimidazol-5-yl]-phenyl}-methanesulfonamide]
–	–	7	CS(=O)(=O)Nc1ccc(-c2ccc3[nH]c(COc4ccc(C(F)(F)F)cc4)nc3c2)cc1 [Cpd 103, N-{4-[2-(4-trifluoromethyl-phenoxymethyl)-1H-benzoimidazol-5-yl]-phenyl}-methanesulfonamide]
–	–	8	NS(=O)(=O)c1cccc(-c2ccc3[nH]c(COc4ccc(C(F)(F)F)cc4)nc3c2)c1 [Cpd 104, 3-[2-(4-trifluoromethyl-phenoxymethyl)-1H-benzoimidazol-5-yl]-benzenesulfonamide]
–	–	7	NS(=O)(=O)c1ccc(-c2ccc3[nH]c(COc4ccc(C(F)(F)F)cc4)nc3c2)cc1 [Cpd 105, 4-[2-(4-trifluoromethyl-phenoxymethyl)-1H-benzoimidazol-5-yl]-benzenesulfonamide]
3	–	94	CN(C)S(=O)(=O)c1ccccc1-c1ccc2[nH]c(COc3ccc(C(F)(F)F)cc3)nc2c1 [Cpd 106, N,N-dimethyl-2-[2-(4-trifluoromethyl-phenoxymethyl)-1H-benzoimidazol-5-yl]-benzenesulfonamide]
–	–	16	Cc1ccccc1-c1ccc2[nH]c(COc3ccc(C(F)(F)F)cc3)nc2c1 [Cpd 107, 5-o-tolyl-2-(4-trifluoromethyl-phenoxymethyl)-1H-benzoimidazole]
